We go through 12 compounds from paper PMC5578090, “Biological Evaluation of Uridine Derivatives of 2-Deoxy Sugars as Potential Antiviral Compounds against Influenza A Virus” (International Journal of Molecular Sciences, 2017).

“Also recorded” adds a separate entry of the source. Like-named read-outs stand apart in the source and are kept apart here.

For data set [1], the system named is influenza virus. Particulars: previously reported; read-out: IC50, anti-influenza virus activity in vitro; cited from earlier work.
Data set [2] in a line: in vitro. Particulars: dog.
In data set [3] the test system is influenza virus A/ostrich/Denmark/725/96 (H5N2). As to the kind of experiment: microbe, parasite or virus in culture. The conditions noted are these: for IC50: H5N2, MDCK. Format: cell-based.
The test system is the same in data set [4]. Type of data set: cell-based.
Data set [5] shares this test system. Format: cell-based. This is another data set of the same source.
Data set [6] relates to HA protein of pandemic human influenza A/H1N1 virus. Format: cell-based.
The test system of data set [7] is MDCK cells.
[8] abbreviates: 72 h, read-out: IC50 (compound concentration required to inhibit virus plaque production by 50%).
Setting [9] is: read-out: p[IC50] = −log[IC50] (converted).

Regarding `CC1(C)O[C@@H]2[C@H](O1)[C@@H](CO[C@@H]1C[C@@H](OCc3ccccc3)[C@H](OCc3ccccc3)[C@@H](CO[Si](C)(C)C(C)(C)C)O1)O[C@H]2n1ccc(=O)n(C(=O)c2ccccc2)c1=O` [IW3, reference compound], the IC50 in data set [1] is 72 µM; in data set [3] (setting [8]), 72 ± 5.2 µM. In data set [2], this compound registered a CC50 of 640 µM. Also, the “SI (selectivity index, ratio of CC50 to IC50)” value in data set [3] is 8.89.
`CC(=O)O[C@H]1[C@H](C)O[C@H](OC[C@H]2O[C@@H](n3ccc(=O)n(C(=O)c4ccccc4)c3=O)[C@@H]3OC(C)(C)O[C@@H]32)C[C@@H]1O[Si](C)(C)C(C)(C)C` [Compound 2]: the “Reduction of virus-induced cytopathic effect (antiviral activity)” value in data set [4] is listed as “significantly reduced the CPE”. Moreover, the “Inhibition of virus propagation depending on time of addition” value in data set [5] was “inhibited the propagation of influenza virus only when it is added to the cells after viral infection”. Moreover, in data set [6], the “Mature form of HA protein” value is “not detected” and the “Yield of HA protein in infected cells” value is “reduced the formation of HA glycoprotein in a dose-dependent manner; also recorded: reduced by compound 2 in a dose-dependent manner; also recorded: dose-dependent decrease of HA glycoprotein production”. The CC50 in data set [2] came to 432 µM. Further, in data set [3], the “Average size and plaque number” value is given as “markedly reduced in a dose-dependent manner”; the “SI (selectivity index, ratio of CC50 to IC50)” value was 5.27. In data set [3] (setting [8]), the IC50 stood at 82 ± 6.81 µM. Moreover, the IC50 in data set [3] (setting [9]) was 81.3 µM.
With `CC(=O)O[C@H]1[C@H](C)O[C@H](OC[C@H]2O[C@@H](n3ccc(=O)[nH]c3=O)[C@@H]3OC(C)(C)O[C@@H]32)C[C@@H]1O[Si](C)(C)C(C)(C)C` [Compound 1], the CC50 in data set [2] is 193 µM. The “SI (selectivity index, ratio of CC50 to IC50)” value in data set [3] is 1.10. For the same compound, the IC50 was 175 ± 8.22 µM in data set [3] (setting [8]) and 174 µM in data set [3] (setting [9]).
In the case of `CC1(C)O[C@@H]2[C@H](O1)[C@@H](CO[C@@H]1C[C@@H](O)[C@H](O)[C@@H](CO)O1)O[C@H]2n1ccc(=O)n(Cc2ccccc2)c1=O` [Compound 8], the “Cytotoxicity (in words)” value in data set [7] is “low”. In data set [2], this compound returned a CC50 of 669 µM. For the same compound, in data set [3], the “SI (selectivity index, ratio of CC50 to IC50)” value was 1.93. The IC50 was 346 ± 10.5 µM in data set [3] (setting [8]) and 347 µM in data set [3] (setting [9]).
Consider `CC1(C)O[C@@H]2[C@H](O1)[C@@H](CO[C@@H]1C[C@@H](OCc3ccccc3)[C@H](OCc3ccccc3)[C@@H](CO)O1)O[C@H]2n1ccc(=O)n(C(=O)c2ccccc2)c1=O` [IW7, reference compound], for which the IC50 in data set [1] was 63 µM; in data set [3] (setting [8]), 63 ± 4.17 µM. The compound also showed a CC50 in data set [2] of 123 µM. The “SI (selectivity index, ratio of CC50 to IC50)” value in data set [3] came out at 1.95.
`CCC(CC)O[C@@H]1C=C(C(=O)O)C[C@H](N)[C@H]1NC(C)=O` [Oseltamivir carboxylate, reference compound] gave a CC50 in data set [2] of more than 100 µM. Moreover, the IC50 in data set [3] (setting [8]) is approximately 0.15 µM.
Regarding `CC1(C)O[C@@H]2[C@H](O1)[C@@H](CO[C@@H]1C[C@@H](OCc3ccccc3)[C@H](OCc3ccccc3)[C@@H](CO[Si](C)(C)C(C)(C)C)O1)O[C@H]2n1ccc(=O)[nH]c1=O` [Compound 5], the CC50 in data set [2] came out at 150 µM. Also, in data set [3], the “SI (selectivity index, ratio of CC50 to IC50)” value was found to be 1.56. Further, the IC50 is 96 ± 7.64 µM in data set [3] (setting [8]) and 97.7 µM in data set [3] (setting [9]).
With `O=c1ccn([C@@H]2O[C@H](CO[C@@H]3C[C@@H](O)[C@H](O)[C@@H](CO)O3)[C@@H](O)[C@H]2O)c(=O)[nH]1` [Compound 9], the “Cytotoxicity (in words)” value in data set [7] is “low”. For the same compound, in data set [2], the CC50 was found to be 800 µM. In data set [3], the “SI (selectivity index, ratio of CC50 to IC50)” value came out at 1.95. Further, the IC50 is 410 ± 11.2 µM in data set [3] (setting [8]) and 407 µM in data set [3] (setting [9]).
Consider `CC1(C)O[C@@H]2[C@H](O1)[C@@H](CO[C@@H]1C[C@@H](O)[C@H](O)[C@@H](CO)O1)O[C@H]2n1ccc(=O)[nH]c1=O` [Compound 7], for which, in data set [7], the “Cytotoxicity (in words)” value was “low”. This compound also had a CC50 in data set [2] of 828 µM. Besides, in data set [3], the “SI (selectivity index, ratio of CC50 to IC50)” value is on record as 1.15. For the same compound, the IC50 was 721 ± 23.2 µM in data set [3] (setting [8]) and 724 µM in data set [3] (setting [9]).
As to `CC(=O)OC[C@H]1OC(OC[C@H]2O[C@@H](n3ccc(=O)[nH]c3=O)[C@@H]3OC(C)(C)O[C@@H]32)C[C@@H](OC(C)=O)[C@@H]1OC(C)=O` (some centres unmarked) [Compound 6], in data set [2], the CC50 was determined as 620 µM. The “SI (selectivity index, ratio of CC50 to IC50)” value in data set [3] came out at 1.08. In addition, the IC50 is 575 ± 17.2 µM in data set [3] (setting [8]) and 575 µM in data set [3] (setting [9]).
As for `CC1(C)O[C@@H]2[C@H](O1)[C@@H](CO[C@@H]1C[C@@H](OCc3ccccc3)[C@H](OCc3ccccc3)[C@@H](COCc3ccccc3)O1)O[C@H]2n1ccc(=O)n(C(=O)c2ccccc2)c1=O` [Compound 4], the “Reduction of virus-induced cytopathic effect (antiviral activity)” value in data set [4] is reported as “significantly reduced the CPE”. Besides, the CC50 in data set [2] is 480 µM. The “SI (selectivity index, ratio of CC50 to IC50)” value in data set [3] was 4.85. The IC50 in data set [3] (setting [8]) is 99 ± 5.23 µM; in data set [3] (setting [9]), 100 µM.
The corresponding values for `CC1(C)O[C@@H]2[C@H](O1)[C@@H](CO[C@@H]1C[C@@H](OCc3ccccc3)[C@H](OCc3ccccc3)[C@@H](COCc3ccccc3)O1)O[C@H]2n1ccc(=O)[nH]c1=O` [Compound 3] are “significantly reduced the CPE”, 407 µM, 4.07, 100 ± 9.84 µM and 100 µM.
